In brackets after ≈: the same amount, converted by molar mass. Where two headings read alike, the source gives them in different places.
Legend:
HSV-1 = assay: Anti-HSV-1 replication assay (Vero cells, plaque titer); format: cell-based, herpes simplex virus 1; conditions: for log reduction at 1 µM / log reduction at 5 µM / log reduction at 0.33 µM: Human alphaherpesvirus 1, Vero; for log reduction at 1 µM: compound at 1 μM, read-out: HSV-1 suppression 1 μM; for log reduction at 5 µM: compound at 5 μM, read-out: HSV-1 suppression 5 μM; for log reduction at 0.33 µM: compound at 0.33 μM, read-out: HSV-1 suppression 0.33 μM
[1] = system: C. neoformans var. grubii, KN99; assay: C. neoformans growth inhibition assay (limiting dilution); format: cell-based, Cryptococcus neoformans
How it was run: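 Growth read as OD650 after 48 h unshaken culture at 35° C, resuspending cells before reading; inoculum OD650 0.001 in pH 7.0 MOPS-buffered YNB, 0.2% dextrose, 1% DMSO. MIC defined at 80% growth inhibition versus vehicle, values averaged from two or more independent triplicate runs.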

HepDES19 cells = conditions: Table 2 amides, MTT
human RNaseH1 = target: T1, human RNaseH1 (Homo sapiens, UniProt O60930); assay: Biochemical inhibition of human RNaseH1 activity
T1 sequence (O60930 1-286): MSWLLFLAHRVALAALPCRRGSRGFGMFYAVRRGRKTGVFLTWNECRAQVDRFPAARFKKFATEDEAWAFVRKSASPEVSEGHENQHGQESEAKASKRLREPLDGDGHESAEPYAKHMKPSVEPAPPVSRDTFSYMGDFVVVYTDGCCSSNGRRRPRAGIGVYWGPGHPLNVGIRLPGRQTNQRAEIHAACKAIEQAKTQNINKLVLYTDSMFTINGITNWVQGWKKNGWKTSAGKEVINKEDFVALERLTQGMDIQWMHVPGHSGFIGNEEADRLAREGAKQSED
How it was run: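 Human enzyme (0.3 μg) with 100 nM RNA:DNA molecular-beacon substrate, 50 mM HEPES pH 8.0, 100 mM NaCl, 2 mM TCEP, compounds 0 to 500 μM, 5% DMSO; started with 5 mM MgCl2, fluorescence read at 37° C. HBV enzyme (C-terminally truncated MBP-HRHgtCΔ5) run in FRET format, monitored 90 min at 37° C., initial rates calculated.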

E. coli = assay: Bacterial growth inhibition (E. coli); format: cell-based; conditions: Escherichia coli
in vitro = conditions: human, HepDES19 cells
[2] = target: HBV RNaseH (MBP-HRHgtCΔ5) (Hepatitis B virus genotype C subtype ayr, UniProt Q69028); assay: Biochemical inhibition of HBV RNaseH (FRET-based RNaseH assay); set-up: a genotype C isolate which lacks the C-terminal 35 amino acids of the HBV RNaseH domain that are predicted to be unstructured; made in house; conditions: HBV RNaseH IC50 (μM), Table 2 amides
Sequence of HBV RNaseH (MBP-HRHgtCΔ5) (Q69028 691-808, stated change not applied): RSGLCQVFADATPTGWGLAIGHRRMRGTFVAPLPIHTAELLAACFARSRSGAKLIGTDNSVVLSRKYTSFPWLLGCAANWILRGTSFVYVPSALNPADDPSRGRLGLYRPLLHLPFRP
Description: Biochemical inhibition of human RNaseH1 activity. Quantitative inhibition of the human RNaseH1 in the biochemical assays was assessed using a molecular beacon assay as described previously (Edwards et al., 2017). Recombinant human RNaseH 1 (0.3 μg) was incubated with 100 nM RNA:DNA substrate, 50 mM HEPES pH 8.0, 100 mM NaCl, 2 mM Tris(2-carboxyethyl)phosphine hydrochloride (TCEP), 0.05% Tween20, 5 units of RNaseOut, test compounds (0 to 500 μM), and 5% DMSO in a 100 μL reaction volume. The substrate was formed by annealing a complementary RNA oligonucleotide to a hairpin DNA oligonucleotide to hold the hairpin DNA oligonucleotide in an open conformation. The DNA oligonucleotide has a 5′ fluorescein reporter and a 3′ black hole quencher. […] Reactions were initiated with 5 mM MgCl2 and fluorescence was read using a Synergy HTS multi-mode plate reader at 37° C. […] Quantitative inhibition of the human RNaseH1 in biochemical assays was assessed using a FRET-based RNaseH assay under conditions previously reported for an RNaseH molecular beacon assay (Edwards et al., 2017). […] Cleavage of the RNA strand released the fluorescein from quenching, increasing fluorescence. Reactions were monitored for 90 min at 37° C. in a plate reader and initial reaction rates were calculated. […]

HBV replication = HBV replication inhibition in HepDES19 cells (strand-preferential qPCR); conditions: Hepatitis B virus, HBV replication, HepDES19 cells
Description: Cells used for toxicity and HBV studies.
HBV replication inhibition studies. HepDES19 cells were seeded in 96-well plates at 4×10^4 cells per well in the absence of tetracycline. Test compounds in a final DMSO concentration of 1% were applied to cells 48 hours after induction of HBV replication and cells were incubated with compounds for 72 hours. Cells were washed in 200 μL of phosphate buffered saline (PBS) and lysed in 150 μL of core lysis buffer (10 mM Tris pH 7.4, 1% Tween20, 150 mM NaCl). Cells were incubated at room temperate on an orbital shaker at 350 rpm for 40 minutes. Cell lysate was transferred to a 96 well polymerase chain reaction (PCR) plate and centrifuged at 3300×g for 5 minutes. The supernatant (50 μL) from the cell lysate was transferred to a 96-well PCR plate and mixed with 20 units of micrococcal nuclease and 100 μM CaCl2. The lysate was incubated for 1 hour at 37° C., and then the nuclease was inactivated at 70° C. for ten minutes. Qiagen protease (0.005 Anson units) was added to the lysate and the mixture was incubated overnight. Qiagen protease was then inactivated at 95° C. for ten minutes.
The crude lysate was used as the template for strand-preferential quantitative polymerase chain reaction (q-PCR) analysis. Quantitative PCR was performed with 40 cycles of 95° C. for 15 s and 60° C. for 1 minute employing the Kappa Probe Force universal PCR master mix.

HSV-2 = assay: Anti-HSV-2 replication assay (Vero cells, plaque titer); format: cell-based, herpes simplex virus 2; conditions: Table 3 sulfur compounds; compound at 5 μM
Description: HSV strains and cells used for HSV studies. […] HSV-1 and HSV-2 are de-identified clinical isolates from the Saint Louis University Hospital. Stocks were prepared after a single passage in cell culture and were titered by standard plaque assay (Knipe and Spang, 1982). Wild-type HSV-2 was laboratory strain 333. The TK-deficient mutant of HSV-2 strain 333, ΔTK−, contains a 180-bp KpnI-KpnI deletion in the UL23 open reading frame that abrogates TK activity (McDermott, et al, 1984). ΔTK− was the generous gift of Jim Smiley. Virus stocks were grown and titered on Vero cells (Morrison and Knipe, 1996).
Anti-HSV-1 and —HSV-2 replication assay. Compounds to be screened were diluted in PBS supplemented to contain 2% newborn calf serum and 1% glutamine and added in 100 μL volume to confluent cell monolayers in 24-well cluster plates Immediately thereafter HSV-1 and HSV-2, diluted in the supplemented PBS medium, were added to the wells in 50 μl volume such that the final concentration of compound was 50 μM and 5 μM and the multiplicity of infection was 0.1. The plates were incubated at 37° C. for 1 hour and then virus-containing inoculum was removed and the wells were washed once in PBS. Compounds, diluted to 50 μM and 5 μM in DMEM supplemented to contain 2% newborn calf serum and 1% each penicillin/streptomycin, were added at 0.5 mL/well. Plates were incubated at 37° C. an additional 23 hr, and then the plates were visually inspected through a phase contrast microscope for cytopathic effect, and for toxic effect. […] The entire contents of each well were collected by scraping. Samples were frozen at −80° C., and then subsequently thawed, sonicated, and infectious virus titer was determined by standard plaque assay on Vero cell monolayers. Because the compounds were dissolved at 10 mM in 100% DMSO, equivalent dilutions of DMSO were added to additional wells as a control for effects of the diluent. Each experiment was repeated once.

[3] = Table 2 amides, 48 h, 35° C., tested 0.19 to 50 μM, read-out: C. neoformans MIC80
[4] = Table 2 amides, read-out: HuRH1 IC50
[5] = Table 2 amides, values separated by / are repeats
[6] = Cryptococcus neoformans, 48 h, Table 2 amides, 48 h, 35° C., tested 0.19 to 50 μM, read-out: C. neoformans MIC80
[7] = HepDES19, read-out: HBV EC50, Table 3 sulfur compounds
[8] = Table 3 sulfur compounds, read-out: Hu RNaseH IC50
[9] = Table 3 sulfur compounds, values separated by / are repeats
[10] = Cryptococcus neoformans, 48 h, Table 3 sulfur compounds, 48 h, 35° C., read-out: C. neoformans MIC80
[11] = CC50, Table 3 sulfur compounds, MTT

SMILES	IC50 (human RNaseH1; [4])	log reduction at 5 µM (HSV-1; [5])	MIC80 [1, 6]	CC50 at 24 h (in vitro; CC50 (μM), Table 2 amides, MTT)	EC50 (HBV replication; [7])	IC50 (human RNaseH1; [8])	log reduction at 1 µM (HSV-1; [9])	log reduction at 5 µM (HSV-1; [9])	HSV-2 suppression 5 μM (HSV-2)	MIC80 [1, 10]	CC50 at 24 h (in vitro; [11])	also measured
Cc1cc(O)c(=O)c(O)cc1C(=O)N1CCNCC1 [compound 404]												Reduction of HSV-1 titers / suppression of HSV-1 replication at 5 μM (HSV-1; 5 μM, plaque forming units (PFU)/ml): undetectable; MIC80 [1, 3]: 9 µM (≈ 2.38 µg/mL); CC50 (HepDES19 cells): 4.5 ± 1.4 µM
Cc1cc(O)c(=O)c(O)cc1C(=O)NCCc1ccccc1 [compound 710]	32.3 ± 3.2 µM	1.69	2.5 µM (≈ 0.748 µg/mL)	4.5 ± 3 µM								log reduction at 1 µM (HSV-1; [5]): 0.15; MIC80 (E. coli): 30 µM (≈ 8.98 µg/mL)
Cc1cc(O)c(=O)c(O)cc1C(=O)NCc1ccc(OC(F)(F)F)cc1 [compound 804]	802 ± 397 µM	1.75	6.8 µM (≈ 2.51 µg/mL)	30.1 ± 18 µM								log reduction at 0.33 µM (HSV-1; Table 2 amides): 0.191; log reduction at 1 µM (HSV-1; [5]): 0.292; IC50 [2]: 285 ± 226 µM
CCCCCCSc1cccc(O)c(=O)c1O [compound 840]					50 µM	72.8 µM	1.52	3.69	5.59 log10	1 µM (≈ 0.254 µg/mL)	21.5 µM	log reduction at 0.33 µM (HSV-1; [9]): 0.271; MIC80 ([1]; Cryptococcus neoformans, read-out: MIC80 against C. neoformans): ≤ 1 µM
O=c1c(O)cccc(Sc2cccc3ccccc23)c1O [compound 839]					50 µM	201 µM	-0.1	3.21	4.2 log10	17 µM (≈ 5.04 µg/mL)	35.1 µM	
Cc1ccc(Sc2cccc(O)c(=O)c2O)cc1 [compound 838]					17 µM	100 µM	0.05	5.33	5.09 log10	1 µM (≈ 0.26 µg/mL)	18.6 µM	
Cc1cc(O)c(=O)c(O)cc1C(=O)N1CCNCC1 [compound 391]		0.29										EC50 (HBV replication; HepDES19, 72 h, Table 2 amides, plus-polarity DNA, 72 h): 0.46 ± 0.2 µM; MIC80 [1, 3]: 40 µM (≈ 10.6 µg/mL); CC50 (HepDES19 cells): 37.5 ± 4.8 µM; CC50 at 24 h (in vitro; CC50): > 20 µM
Cc1cc(O)c(=O)c(O)cc1C(=O)Nc1ccc(OCc2ccccc2)cc1 [compound 837]	625 ± 451 µM	4.09	4.5 µM (≈ 1.7 µg/mL)	8.7 ± 3.4 µM								IC50 [2]: 118 ± 88.7 µM

From patent US12606529B2, “Sulfur and amide tropolone inhibitors of nucleotidyl transferases and uses therefor” (Saint Louis University, priority 2019, dated 2026)
